This is an account of results in US20040191168A1, “Tumor cell killing by cell cycle checkpoint abrogation combined with Inhibition of the classical mitogen activated protein (map) kinase pathway” (priority 2000, published 2004).

“And” between values parts separate entries of the source, which are not always exact repeats. Equal values may be shown once.

In one assay the test system is U937 cells. The assay is described as follows: Morphological assessment of apoptosis (Wright-Giemsa cytospins) in U937 cells. The format is cell-based, human. The settings on record: U937 cells; for apoptosis (cell death): UCN-01 150 nM, FIG. 1A. As to the method: Experimental Format. All of the experiments were performed using logarithmically growing cells (3-5×10^5 cells/ml). Cell suspensions were placed in sterile 25 cm^2 T-flasks (Corning, Corning, N.Y.) and incubated with MEK or PKC inhibitors for 30 min at 37° C. At the end of this period, UCN-01 (or in some cases, caffeine) was added to the suspension, and the flasks were placed in 37° C./5% CO2 incubator at various intervals, generally 18 h. In some studies, the p38 MAP kinase inhibitor SB203580 was added concurrently with MEK inhibitors. After drug treatment, cells were harvested and subjected to further analysis as described below.
Analysis of Apoptosis. […] For each condition, 5 to 10 randomly selected fields/condition were evaluated, encompassing at least 500 cells (Vrana and Grant, 2001). To confirm the results of morphological analysis, in some cases cells were also evaluated by TUNEL staining (Gorczyca et al., 1993) and assessment of oligonucleosomal DNA fragmentation of total DNA. DNA fragmentation was analyzed by 1.8% agarose gel electrophoresis as described previously (Jarvis et al., 1994). For TUNEL staining, cytocentrifuge preparations were obtained and fixed with 4% formaldehyde. The slides were treated with acetic acid/ethanol (1:2), stained with terminal transferase reaction mixture containing terminal transferase reaction buffer, 0.25 units/ ml terminal transferase, 2.5 mM CoCl2, and 2 pmol fluorescein-12-dUTP (Boehringer Mannheim, Indianapolis, Ind.), and visualized using fluorescence microscopy.

The next assay relates to MAPK/ERK. The assay is described as follows: p42 MAPK immune complex kinase assay in carcinoma cells. It is filed as cell-based, human. Conditions: MCF7, MDA-MB-231, T47D and DU145 cells; UCN-01 150 nM; MEK1/2 inhibitors (PD98059 25 μM, PD184352 10 μM, U0126 5 μM) given with UCN-01. On the procedure:
Immunoprecipitations from Lysates. Fifty microliters of Protein A agarose (Ag) slurry (25 μl bead volume) was washed twice with 1 ml PBS containing 0.1% (v/v) Tween 20, and resuspended in 0.1 ml of the same buffer. Antibodies (2 μg, 20 μl), serum (20 μl) were added to each tube and incubated (3 h, 4° C.). For pre-conjugated antibodies,10 μl of slurry (4 μg antibody) was used. Clarified equal aliquots of lysates (0.25 ml, 100 μg total protein) were mixed with Ag-conjugated antibodies in duplicate using gentle agitation (2.5 h, 4° C.). Ag-antibody-antigen complexes were recovered by centrifugation, the supernatant discarded, and washed (10 min) sequentially with 0.5 ml buffer A (twice), PBS and buffer B [25 mM Hepes, pH 7.4, 0.1 mM Na3VO4].
Assay of p42^MAPK activity. Immunoprecipitates were incubated (final volume 50 μl ) with 50 μl of buffer B containing 0.2 mM [γ-^32P]ATP (5000 cpm/pmol), 1 μM Microcystin-LR, 0.5 mg/ml myelin basic protein NP), which initiated reactions at time=0. After 20 min., 40 μl of the reaction mixtures were spotted onto a 2 cm circle of P81 paper (Whatman, Maidstone, England) and immediately placed into 180 mM phosphoric acid. Papers were washed four times (10 min each) with phosphoric acid, and once with acetone, and ^32P-incorporation into MBP was quantified by liquid scintillation spectroscopy.

With `O=C(NOCC1CC1)c1ccc(F)c(F)c1Nc1ccc(I)cc1Cl` [PD184352], the “Apoptotic cells (%)” value with U937 cells (18 h, PD184352 10 μM, GFX 1 μM, safingol 2 μM, mean ± SD) is 1.8 ± 0.1% and 2.1 ± 0.1%. Also, the “apoptosis (cell death)” value in the assay with U937 cells (18 h, PD184352 10 μM) came to 10%. The “MAPK/ERK activity (immune complex kinase assay)” value in the assay with MAPK/ERK is reported as “opposed”.

As to `CN[C@@H]1C[C@H]2O[C@@](C)([C@@H]1OC)n1c3ccccc3c3c4c(c5c6ccccc6n2c5c31)C(=O)N[C@H]4O` [UCN-01, 7-hydroxystaurosporine], the “apoptosis (cell death)” value with U937 cells (18 h, PD184352 10 μM) came out at 10%. In addition, the “percentage of apoptotic cells” value in the assay on U937 cells (24 hr, 100 nM UCN-01, 10 μM LY294002, FIG. 14) is “about 20%”. Besides, the “MAPK/ERK activity (immune complex kinase assay)” value with MAPK/ERK is reported as “activation of MAPK/ERK was observed”.
